From ChEMBL document CHEMBL3507680, “University of Dundee, Gates Library screen for HepG2 cell viability” come the findings set out here.

A short description of the data set: Human HepG2 cell viability assay in 384 well format. Also on record: dose 125 nL, time 70.5 hour; concentration not given beside the values. The note with it: HepG2 cells, read-out: Inhibition. The format is toxicity, cell-based.
Regarding `CN(C)C(=O)CN1CCC2(COCc3cnc(-c4ccccc4)nc32)C1` (centres undefined), the cytotoxicity at 70.5 h is -6.03%.
For `CCNC(=O)C1CCCN(c2ccc(C#N)cc2C(F)(F)F)C1` (centres undefined) the value was -4.1%.
Turning to `CCc1ncc2c(n1)CN(Cc1cccc3c1OCCO3)CC2`, the cytotoxicity at 70.5 h was -3.18%.
Under `COc1cccc(C(C(=O)O)N(C)Cc2ccc(C)o2)c1` (centres undefined) stands -0.112%; under `CN(CC(=O)N1CCC(C(O)c2ccccc2)CC1)c1cnccn1` (centres undefined), -20.6%; under `COC(=O)[C@@H]1Cc2ncn(C)c2CN1S(=O)(=O)Cc1ccccc1`, -2.85%.
For `CNC(=O)N(C)CC1(c2ccc(Br)cc2)CC1` the value was -3.73%.
With `Cc1ccc(CN(C)C(=O)CNC(C)(C)c2noc(C(C)(C)C)n2)o1`, the cytotoxicity at 70.5 h is -0.348%.
Under `Cc1nc(CSCCC(=O)NCc2ccc(N(C)C)cc2)cs1` stands -3.76%; under `CCN(CC1CCCO1)C(=O)Nc1ccc(OC)c(C)c1` (centres undefined), -8.02%.
Under `Cc1cnn(CC2CCCN2C(=O)c2cnc3n[nH]c(C)c3c2)c1` (centres undefined) stands 15.1%; under `Cc1nnc(NC(=O)N2CCCCC2CCO)s1` (centres undefined), -0.98%; under `CCOc1ccc(S(=O)(=O)NCCCc2ccc(N(C)C)cc2)cc1F`, 0.733%.
Under `O=C1NCc2ccccc2CC12CCN(Cc1ccccc1Cl)CC2` stands -3.39%.
As to `Cc1cc(NC(=O)NCC2CCN(C(C)C)C2)no1` (centres undefined), the cytotoxicity at 70.5 h was -5.36%.
Under `CCN1CCN(S(=O)(=O)c2cn(C(C)C)cn2)c2ccccc21` stands -1.25%; under `CN(C)C(=O)CO[C@H]1CN(Cc2ccccc2)[C@@H]2CCCO[C@H]12`, 34.3%.
For `CC(C)C(=O)NCc1cccc(N2CCCCC2=O)c1` the value was -12.2%.
For `Cc1cc(C(=O)N2CCCC2)ccc1NCCO` the value was -10.2%; for `Cc1cnn(CC2CCCN2C(=O)c2cc3c(F)cccc3[nH]2)c1` (centres undefined), 6.2%.
As to `Cc1cc(CN2CC[C@H]3C(=O)N(c4cccnc4)CCO[C@H]3C2)no1`, the cytotoxicity at 70.5 h is -4.94%.
Under `O=S(=O)(CC1CC1)c1ncc(CN2CCOCC2)n1CC1CCCO1` (centres undefined) stands -0.667%.
For `CCN1CC2(CCC1=O)CCN(C(=O)c1ccc(Cl)cc1O)CC2` the value was -2.93%; for `CS(=O)(=O)N[C@@H]1CCO[C@]2(CCN(C(=O)c3cnccn3)C2)C1`, -5.97%.
Under `Cc1onc(-c2ccncc2)c1C(=O)NC1CCCOC1` (centres undefined) stands -9.07%; under `O=C(Nc1cccc(F)c1)N1CCN(Cc2noc(C3CC3)n2)CC1`, -13.8%.
In the case of `CCN(Cc1ccncc1)C(=O)CCn1c(C)cc2ccccc21`, the cytotoxicity at 70.5 h was -3.9%.
For `CN(CC(=O)N1CCCC1Cn1cccn1)Cc1ccccc1` (centres undefined) the value was -17.4%; for `COc1cc(F)c(S(=O)(=O)NCc2ccnc(N(C)C)n2)cc1OC`, -8.38%; for `CCn1c(SCC(=O)N2CCOCC2)nc2cc(C)[nH]c2c1=O`, 0.779%.
With `CC(C)c1ncc(CN2C[C@@H](CN3CCCN(C)CC3)[C@@H](CO)C2)cn1`, the cytotoxicity at 70.5 h was -3.2%.
Under `CCC(CO)NCc1ccc(-c2ccc(Cl)cc2)o1` (centres undefined) stands 7.49%.
As to `CCOc1ccc(N(C)S(=O)(=O)c2c[nH]c(C(C)C)n2)cc1`, the cytotoxicity at 70.5 h was -4.89%.
Under `c1ccc(CN2CCN3C[C@H](Oc4cccnc4)C[C@H]3C2)nc1` stands -3.66%.
Under `Cc1cc(F)ccc1NC(=O)NCC(C)N1CCOCC1` (centres undefined) stands 32.7%.
For `CC(C)OCCOCc1cccc(NC(=O)NCCn2ccnc2)c1` the value was -8.94%; for `CCNC(c1cccnc1)c1ccc(F)c(F)c1` (centres undefined), -2.78%; for `Cc1nnc2n1CCN(Cc1csc(-c3ncccn3)n1)C2`, 39.4%.
For the compound `CCCc1noc(C2CCN(C(=O)CCn3nc(C)cc3C)CC2)n1`, the cytotoxicity at 70.5 h is -7%.
For the compound `Cc1cccc(OC2CCN(S(=O)(=O)Cc3cccc(F)c3)CC2)n1`, the cytotoxicity at 70.5 h is -1.18%.
For `CNc1nc2c(s1)C(=O)CN(C(=O)NCCc1ccccc1)C2` the value was 17.6%; for `CC(C)(C)c1cc(NC(=O)CN(Cc2cccs2)Cc2cccs2)on1`, -8.34%; for `Cn1ccc2cc(C(=O)N3CC[C@@]4(O)CCCC[C@H]4C3)ccc21`, -13.9%.
With `O=C(CN1CCCC(Cn2cncn2)C1)NCCOc1ccccc1` (centres undefined), the cytotoxicity at 70.5 h was -2.13%.
Under `O=C(CN1CCCC1Cn1cncn1)Nc1ccnn1C1CCCC1` (centres undefined) stands -4.96%; under `O=C(CSC1CCc2ccccc2NC1=O)NC1CC1` (centres undefined), -2.66%; under `Cc1ccc2nc(C(=O)N(C)[C@@H]3CC[C@@H](N4CCCC4)[C@@H]3O)cn2c1`, -3.38%.
For `COCCCNC(=O)CN(C)C(=O)c1ccccc1O` the value was -3.02%; for `COc1cccc(N2CCC(CNC(=O)N(C)Cc3ccco3)C2)c1` (centres undefined), -3.66%.
`Cc1nc(C)n(CC2CCCN2CC(=O)Nc2cc(C)on2)n1` (centres undefined): the cytotoxicity at 70.5 h was -8.96%.
As for `COCCN(C)CC(=O)N1C[C@@H](C)[C@](O)(C(C)C)C1`, the cytotoxicity at 70.5 h was -1.28%.
For `NC(=O)c1ccccc1-n1cc(-c2cccc(C(=O)O)c2)cn1` the value was -9.16%; for `COc1ccc(C(C)NC(=O)NCCCn2cncn2)cc1F` (centres undefined), -4.51%.
Consider `CCC(Nc1nc(CCN)nc2ccccc12)c1cccs1` (centres undefined), for which the cytotoxicity at 70.5 h is -3.38%.
On to `O=C(NCC1CC1)c1cc2c(s1)CCN2c1ncccn1`, for which the cytotoxicity at 70.5 h was -0.353%.
Under `Cc1ncc(-c2nc3cc(S(=O)(=O)N4CCCC4)ccc3n2C)cn1` stands -0.434%; under `CC(NC(=O)N(C)Cc1ccc2c(c1)OCO2)c1nncn1C` (centres undefined), -8.56%; under `COCCOc1ncccc1C(=O)N1CCCCC1c1nccs1` (centres undefined), -3.02%.
For `O=C(Cc1c[nH]c2ncccc12)NCC(O)c1ccccc1F` (centres undefined) the value was 15.1%; for `O=S(=O)(C1CC1)N1CC[C@]2(C[C@@H](Oc3ncccc3F)CO2)C1`, 6.64%.
Under `CCN1CCCCC1C(=O)N1CCC(OCCOC)CC1` (centres undefined) stands 1.39%.
Turning to `O=C(c1ccccc1)N1CC[C@H]2C[C@@H](c3nccs3)O[C@@H]2C1`, the cytotoxicity at 70.5 h was -17.1%.
Under `COc1ccc(C)nc1NC(=O)CCc1c(C)nn(C)c1C` stands 6.42%.
Under `CC1=C(c2ccc(C)cc2)S(=O)(=O)N=C1N1CCc2ccccc21` stands -5.39%; under `Cc1nnc(N2C[C@@H](OCCCn3cccn3)[C@H]3OCCC[C@H]32)s1`, -9.45%; under `COCCN1CCCC(C)(c2cc(O)[nH]n2)C1` (centres undefined), 1.15%.
For `CNC(=O)[C@@]12CCO[C@@H]1CCN(Cc1scnc1C)C2` the value was 4.42%; for `Nc1cc(-c2c[nH]nc2C2CCCN2CCCc2ccccc2)ccn1` (centres undefined), -1.57%.
In the case of `O=C(NCc1ccco1)c1cccc(CN2CCCC2CO)c1` (centres undefined), the cytotoxicity at 70.5 h is -8.88%.
For the compound `CN(C(=O)Cn1nc(-c2ccc(F)cc2)oc1=O)C1CCS(=O)(=O)C1` (centres undefined), the cytotoxicity at 70.5 h was 12.8%.
For `CCNc1ncc(C(=O)NC(CC)c2ccnn2C)cn1` (centres undefined), the cytotoxicity at 70.5 h is -5.36%.
On to `Cc1nc(CN2CCc3ncnc(-c4ccsc4)c3CC2)cs1`, for which the cytotoxicity at 70.5 h is -9.47%.
Under `COc1cc2c(cc1OC)S(=O)(=O)N(Cc1cccc(C)c1)C2=O` stands -11.2%; under `Cc1n[nH]c(C)c1-c1nccnc1CC1CCN(C(C)C)CC1`, 13.4%.
Under `COc1ccc(S(=O)(=O)NCC(c2cccn2C)N(C)C)c(C)c1` (centres undefined) stands -12.6%; under `c1cnc(NC[C@H]2OC[C@@H]3CCN(Cc4cccnc4)C[C@@H]32)nc1`, -12.6%.
Under `CCCc1nc(CN2CCOC(Cn3cncn3)C2)no1` (centres undefined) stands 18.1%; under `CC1CCCN(CCNC(=O)c2ccn(-c3ccc(F)cc3)n2)C1` (centres undefined), -0.389%; under `CN1CCC(c2nnc3n2CCN(S(=O)(=O)c2ccccc2Cl)C3)CC1`, -5.89%.
Take `CCOCCC(=O)N1C[C@H]2CC[C@@H]1CN(Cc1ccncc1)C2`: the cytotoxicity at 70.5 h was -11.6%.
Under `CCc1ccc(C(=O)N2CCC(Nc3ccc(C)nn3)CC2)o1` stands -4.81%.
Regarding `COc1ccc(COCC(O)CSc2ccc(NC(C)=O)cc2)cc1` (centres undefined), the cytotoxicity at 70.5 h was -10.5%.
Under `CCN1CCN(C(=O)c2c[nH]c(C(C)C)n2)c2ccccc21` stands 2.09%; under `O=C(O)[C@@H]1CN(C2CCOCC2)C[C@H]1C1CC1`, -7.25%.
For the compound `NC(=O)C(NC(=O)CSCc1ccc(Cl)s1)c1ccccc1` (centres undefined), the cytotoxicity at 70.5 h was -1.53%.
For `CC(CNS(N)(=O)=O)Oc1ccc(Cl)cc1` (centres undefined) the value was 1.53%; for `Cc1n[nH]c(C)c1C1CCCN1C(=O)NCC(=O)NC(C)(C)C` (centres undefined), -2.7%.
For the compound `CC(C)CC(NC(=O)CN(C)c1cnccn1)c1cccs1` (centres undefined), the cytotoxicity at 70.5 h is -6.01%.
Under `O=C(Cc1ccccc1F)NCC1CCN(CCN2CCOCC2)C1` (centres undefined) stands 2.01%.
Take `c1ccc(CN2Cc3[nH]nc(COCC4CC4)c3C2)nc1`: the cytotoxicity at 70.5 h was -4.63%.
Under `O=C(c1cnco1)N1CCCC(Cc2nccs2)C1` (centres undefined) stands -7.07%; under `COc1ccc(S(=O)(=O)C(C)C(=O)NCCOc2cccc(C)c2)cc1` (centres undefined), -3.65%.
Under `CC(Cn1cccn1)NC(=O)N1CCN(Cc2cccnc2)CC1` (centres undefined) stands -7.03%; under `CC(C)Nc1nc(N2CCCC2)nc2c1CN(c1ncc(F)cn1)CC2`, -7.8%; under `CC(CCc1ccccc1)N1CCC(C(=O)Nc2cnccn2)CC1` (centres undefined), -19.2%.
Under `Cc1cccc(CN2CCN(C(=O)c3cc(Cl)c[nH]c3=O)CC2)c1` stands -4.23%.
In the case of `CCn1ccc(NC(=O)c2cc(C)on2)n1`, the cytotoxicity at 70.5 h was -8.5%.
`NC(=O)N1CCCC(C(=O)Nc2cccc(Cl)c2)C1` (centres undefined): the cytotoxicity at 70.5 h was -8.06%.
For `Cc1cc(C)n(CC2CN(Cc3cc(C)on3)CCO2)n1` (centres undefined) the value was -3.83%.
